Experimental data as given in US8932597B2 (priority 2008, dated 2015).

Legend:
HuM2e antibody 23K12 = assay type: binding, human
[1] = system: anti-M2 human monoclonal antibody Z3G1; assay type: binding

Substance | Signal (peptides that bind to 23K21 and 8I10) (HuM2e antibody 23K12) | Signal (peptides that show specific binding to Z3G1) [1] | Signal (peptides that bind to Z3G1) [1]
658 (SLLTEVYTPIRNEWGCRCNDSSD; epitope peptide) [compound 658] | 751 | 1092 | –
351 (SLLCEVGSLLTEC; epitope peptide) [compound 351] | 1564 | 2438 | –
435 (SLLTEVETP; epitope peptide) [compound 435] | 899 | – | 2380
436 (SLLTEVETPI; epitope peptide) [compound 436] | 1084 | – | 2465
501 (SLLTEVETPIRNEWGCCCNDSSD; epitope peptide) [compound 501] | 1065 | 2515 | –
612 (SLLTEVETPIRNEWGCRCIDSSD; epitope peptide) [compound 612] | 812 | – | 2450
425 (SLLTEVETPIRNEWGCRCNDSKD; epitope peptide) [compound 425] | 770 | – | 2361
467 (SLLTEVENPIRNEWGCRCNDSSD; epitope peptide) [compound 467] | 1245 | 2549 | –
383 (CSLLTEVGCSLLTEC; epitope peptide) [compound 383] | 1380 | – | 2486
430 (SLLTEVETPIRNEWGCRCNDSRD; epitope peptide) [compound 430] | 833 | – | 2373
400 (SLLTEVETPIRNEWGCRCNVSSD; epitope peptide) [compound 400] | 865 | – | 2476
300 (SLLTEVETKIRNEWGCRCNDSSD; epitope peptide) [compound 300] | 1960 | 2485 | –
680 (SLLTEVETPIVNEWGCRCNDSSD; epitope peptide) [compound 680] | 729 | 2366 | –
573 (SLLTEVETPIRNEWGCRTNDSSD; epitope peptide) [compound 573] | 867 | 2374 | –
460 (MSLLTECGMSLLCEV; epitope peptide) [compound 460] | 1268 | – | 2373
529 (SLLTEVETNIRNEWGCRCNDSSD; epitope peptide) [compound 529] | 978 | 2253 | –
638 (SLLTEVETPIRNEWGTRCNDSSD; epitope peptide) [compound 638] | 767 | 2404 | –
328 (SLETEVETPIRNEWGCRCNDSSD; epitope peptide) [compound 328] | 1720 | 1963 | –
665 (SLLTEVETPFRNEWGCRCNDSSD; epitope peptide) [compound 665] | 745 | 2229 | –
286 (CSLLTEVGMSLLTCV; epitope peptide) [compound 286] | 2311 | – | 2768
718 (SLLTEVECPIRNEWGCRCNDSSD; epitope peptide) [compound 718] | 700 | 1974 | –
701 (SLLTEVETPIRNEWGCKCNDSSD; epitope peptide) [compound 701] | 715 | 2290 | –
615 (SLLTEVETPIRNEWGCDCNDSSD; epitope peptide) [compound 615] | 810 | 2207 | –
609 (SLLTEVETHIRNEWGCRCNDSSD; epitope peptide) [compound 609] | 816 | 2288 | –
303 (CSLLTEVGMCLLTEV; epitope sequence) [compound 303] | 1941 | – | 2618

Substance | Signal (peptides that bind to 23K21 and 8I10) (HuM2e antibody 23K12) | Signal (peptides that show specific binding to Z3G1) [1] | Signal (peptides that bind to Z3G1) [1]
296 (MSLLTEVGMCLLTEV; epitope peptide) [compound 296] | 2023 | – | 2809
622 (SLLTEVETPIRMEWGCRCNDSSD; epitope peptide) [compound 622] | 805 | 2385 | –
473 (SLSTEVETPIRNEWGCRCNDSSD; epitope peptide) [compound 473] | 1217 | 2052 | –
433 (SLLTEVETPIRNEWGCRCNDSWD; epitope peptide) [compound 433] | 971 | – | 2477
432 (SLLTEVETPIRNEWGCRCNDSVD; epitope peptide) [compound 432] | 728 | – | 2232
533 (CSLLTEVGSCLCEC; epitope peptide) [compound 533] | 963 | 2625 | –
250 (CSLLTEVETCTEVETPIRNEWGSRSC; epitope peptide) [compound 250] | 786 | 2474 | –
309 (CSLLTEVGMSLLCEV; epitope peptide) [compound 309] | 1891 | – | 2734
385 (CSLLTEVGCLCTCV; epitope peptide) [compound 385] | 1375 | 2474 | –
390 (CLLTEVGSLLTEV; epitope peptide) [compound 390] | 1349 | 2494 | –
415 (SLLTEVETPIRNEWGCRCNDRSD; epitope peptide) [compound 415] | 860 | – | 2502
532 (MSCLTEVGMSLLTEV; epitope peptide) [compound 532] | 968 | – | 2336
697 (SLLTEVETPIRNEWGCRINDSSD; epitope peptide) [compound 697] | 718 | 2409 | –
702 (SLLTEVETPIRNYWGCRCNDSSD; epitope peptide) [compound 702] | 714 | 2311 | –
681 (SLLTEVETPIRNEWACRCNDSSD; epitope peptide) [compound 681] | 729 | 2431 | –
316 (MSLLTEVGCSLLTEV; epitope peptide) [compound 316] | 1809 | – | 2650
389 (SLLTEVETPYRNEWGCRCNDSSD; epitope peptide) [compound 389] | 1350 | 2303 | –
709 (SLLTEVLTPIRNEWGCRCNDSSD; epitope peptide) [compound 709] | 707 | 1743 | –
696 (SLLTEVETPIRNEHGCRCNDSSD; epitope peptide) [compound 696] | 719 | 2398 | –
650 (SLLTEVETPVRNEWGCRCNDSSD; epitope peptide) [compound 650] | 758 | 2331 | –
571 (SLLTEVETPIRNLWGCRCNDSSD; epitope peptide) [compound 571] | 870 | 2415 | –
317 (MSLLTEVGMSLCTEV; epitope peptide) [compound 317] | 1804 | – | 2895
587 (SLLTEVETPIRCEWGCRCNDSSD; epitope peptide) [compound 587] | 850 | 1956 | –
566 (SLLTEVCTPIRNEWGCRCNDSSD; epitope peptide) [compound 566] | 881 | 1210 | –
396 (SLLTEVETPIRNEWGCRCNPSSD; epitope peptide) [compound 396] | 849 | – | 2445
